{"source": "paper PMC5007466", "about": "“VCP recruitment to mitochondria causes mitophagy impairment and neurodegeneration in models of Huntington's disease” (Nature Communications, 2016)", "key": {"[1]": {"test_system": "interaction between VCP and UBXD1", "assay": "Co-immunoprecipitation VCP/UBXD1", "type": "cell-based", "details": "HV-3 treatment; total cell lysates, IP/WB", "procedure": "(b) Stick drawings of VCP and Htt main domains. […] Immunoprecipitates were analysed by WB with the indicated antibodies. […] VCP mitochondrial levels were determined by WB. Loading control: VDAC. Data are mean±s.e.m. (g–i) ANOVA with Holm-Sidak post hoc test."}, "[2]": {"biological_target": "T1, full-length mouse VCP/p97 (Mus musculus, UniProt Q01853)", "T1 construct": "The full-length mouse VCP/p97 (residues 2–806) was expressed with an N-terminal 6xHis-tag; 6xHis (N); host or cells: Escherichia coli Rosetta (DE3)", "T1 sequence (Q01853 2-806)": "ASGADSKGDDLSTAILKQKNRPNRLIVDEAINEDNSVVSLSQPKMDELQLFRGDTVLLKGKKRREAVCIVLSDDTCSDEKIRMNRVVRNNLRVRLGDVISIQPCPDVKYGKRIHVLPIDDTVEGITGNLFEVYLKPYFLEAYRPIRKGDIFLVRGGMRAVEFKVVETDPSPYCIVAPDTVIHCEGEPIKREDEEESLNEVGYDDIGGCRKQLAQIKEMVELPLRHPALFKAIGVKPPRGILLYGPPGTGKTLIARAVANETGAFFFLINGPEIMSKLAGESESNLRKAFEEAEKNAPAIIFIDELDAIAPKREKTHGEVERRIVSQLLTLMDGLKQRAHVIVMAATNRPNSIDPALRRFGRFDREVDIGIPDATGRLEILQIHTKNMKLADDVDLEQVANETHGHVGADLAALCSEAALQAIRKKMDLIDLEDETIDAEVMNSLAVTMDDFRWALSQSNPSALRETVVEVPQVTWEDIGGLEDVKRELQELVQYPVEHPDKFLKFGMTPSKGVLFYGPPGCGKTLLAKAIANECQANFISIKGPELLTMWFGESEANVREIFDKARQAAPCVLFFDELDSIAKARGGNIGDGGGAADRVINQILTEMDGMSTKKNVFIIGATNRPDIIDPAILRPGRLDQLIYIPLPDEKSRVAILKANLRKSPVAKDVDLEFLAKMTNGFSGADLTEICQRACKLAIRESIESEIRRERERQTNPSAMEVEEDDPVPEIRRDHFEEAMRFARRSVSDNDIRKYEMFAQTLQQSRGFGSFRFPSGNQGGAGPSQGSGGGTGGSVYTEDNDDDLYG", "assay": "Isothermal titration calorimetry (ITC)", "type": "binding", "details": "15 °C", "procedure": "The full-length mouse VCP/p97 (residues 2–806) was expressed with an N-terminal 6xHis-tag (Addgene: plasmid # 12373) in the Rosetta (DE3) strain of Escherichia coli (Novagen) as previously described. Briefly, the cells were grown in LB media supplemented with Kanamycin and induced at OD∼1.0 for 16 h at 18 °C. Cells were homogenized in Buffer A (500 mM KCl, 25 mM Hepes pH 8.0, and 2 mM β-mercaptoethanol) in the presence of EDTA-free Complete Protease Inhibitor (Roche) and 2 mM PMSF. The lysate was cleared by centrifugation at 45,000 g for 1 h at 4 °C. Supernatant was incubated with 2 ml of Ni-NTA agarose resin (Qiagen) for 2 h at 4 °C. The resin was washed with Buffer A containing 50 mM imidazole and eluted with Buffer A containing 400 mM imidazole. VCP protein was further purified by passing through Superdex 200 increase 10/300 GL (GE Healthcare) size exclusion column equilibrated with Buffer B (250 mM KCL, 25 mM Hepes pH 8.0, 2 mM β-mercaptoethanol and 1 mM MgCl2). The fractions containing the pure sample, as determined by SDS–PAGE analysis, were pooled and concentrated to a final concentration of ∼3–5 mg ml^−1.\nBinding of HV-3 peptide to VCP was measured by isothermal titration calorimetry on a MicroCal ITC200 (GE Healthcare). Before the calorimetric titrations, the protein was exchanged into Buffer C (100 mM NaCl, 10 mM Hepes, pH 8.0) on a PD-10 column (Amersham Biosciences) and concentrated to ∼5–6 mg ml^−1. The final concentration of protein in the cell (∼60–70 μM) was determined on a NanoDrop Spectrophotometer (Thermo Scientific NanoDrop 2000) using a molecular weight of 89.32 KDa and a molar extinction coefficient of […]. The HV-3 peptide was dissolved in Buffer C to a final concentration of 2 mM and loaded into the syringe. The measurements were made at a constant cell temperature of 15 °C and repeated at least three times. Thirty successive injections of 1.2 μl each were titrated into the cell with constant stirring at 1,000 r.p.m. An equilibration time of 150 s was set between consecutive injections. The binding isotherms were analysed with the MicroCal Origin software. For measurements of heat of dilution, the protein sample in the cell was replaced by Buffer C and all other conditions were kept identical."}, "[3]": {"test_system": "HdhQ111 / HdhQ7 mouse striatal cells", "assay": "Mitochondrial morphology, anti-Tom20 staining", "type": "cell-based", "procedure": "Figure 4 HV-3 treatment reduces mitochondrial damage and cell death in HD cell cultures. Mouse HdhQ7 and HdhQ111 striatal cells were treated with control peptide TAT or peptide HV-3 (3 uM/day for 3 days). (a) Left panel: Mitochondrial membrane potential (MMP) was determined by TMRM fluorescent dye. Right panel: HdhQ111 cells were transfected with control siRNA (siCon) and VCP siRNA (siVCP) for three days. The MMP was determined by TMRM in HdhQ111 cells treated with TAT or HV-3. (b) Mitochondrial morphology was determined by staining cells with anti-Tom20 antibody. Scale bar: 10 μm. The percentage of cells with fragmented mitochondria relative to the total number of cells was quantitated. At least 100 cells per group were counted. (c) Mitochondrial morphology was determined by EM. The length of mitochondria and the number of mitophagosomes were quantitated. At least 90 mitochondria per group were counted. […] HMGB1 release into culture medium was determined by IB analysis with anti-HMGB1 antibody. […] Cell death was determined by the release of LDH. […] (g) Quantitation of neurite length of medium spiny neurons. At least 50 neurons per group were counted by an observer blind to experimental conditions. (h) Left: the MMP was determined by TMRM fluorescent dye. […] Mitochondrial length along neurites of DARPP32/Tuj1-positive neurons was quantitated. […]"}}, "data": [{"smiles": "CSCC[C@H](NC(=O)[C@@H](NC(=O)[C@H](CC(C)C)NC(=O)[C@@H](NC(=O)[C@H](Cc1c[nH]cn1)NC(=O)CCCCCNC(=O)[C@H](CCCNC(=N)N)NC(=O)[C@H](CCCNC(=N)N)NC(=O)[C@H](CCCNC(=N)N)NC(=O)[C@H](CCC(N)=O)NC(=O)[C@H](CCCNC(=N)N)NC(=O)[C@H](CCCNC(=N)N)NC(=O)[C@H](CCCCN)NC(=O)[C@H](CCCCN)NC(=O)[C@H](CCCNC(=N)N)NC(=O)CNC(=O)[C@@H](N)Cc1ccc(O)cc1)C(C)C)C(C)C)C(=O)N[C@@H](CS)C(=O)N[C@@H](C)C(=O)N[C@H](C(N)=O)[C@@H](C)O", "note": "[HV-3]", "values": [{"measurement": "interaction between VCP and UBXD1", "setting": "[1]", "result": "nor did it influence the interaction between VCP and its known binding protein UBXD1"}, {"measurement": "Kd", "setting": "[2]; 100 mM NaCl, 10 mM Hepes pH 8.0, protein ∼60–70 μM, HV-3 2 mM in syringe, repeated at least three times", "result": "17.9 ± 7", "unit": "µM"}, {"measurement": "n (stoichiometry)", "setting": "[2]; pH 8.0", "result": "2.02±0.23"}, {"measurement": "ΔH", "setting": "[2]; pH 8.0", "result": "-2.145 ± 0.65", "unit": "kcal/mol"}, {"measurement": "ΔS", "setting": "[2]; pH 8.0", "result": "13.97±3.4", "unit": "cal mol^−1 deg^−1"}, {"measurement": "fragmented mitochondria", "setting": "[3]; HdhQ111 cells, 3 uM/day for 3 days, anti-Tom20", "result": "reduced the number of fragmented mitochondria"}, {"measurement": "mitochondrial morphology, wt", "setting": "[3]; wt counterparts of the HD models", "result": "only minor effects"}]}]}
